Each compound was assayed against T1, GST-tagged GDP-loaded KRAS G12V (amino acids 1-169) (Homo sapiens, UniProt P01116, G12V) (assay: KRAS G12V probe displacement assay (TR-FRET)). Settings: displacement of biotinylated probe 2 from GDP-loaded KRAS G12V.
T1 construct: GST-tagged GDP-loaded KRAS G12V (amino acids 1-169); made in house; host or cells: E. coli
Format: binding
Outline: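 GST-tagged GDP-loaded KRAS 1-169 (WT 3 nM; G12V 2 nM final) preincubated 1 h at 24 °C with serially diluted compound in HEPES pH 7.5 buffer, then biotinylated probe added (probe 1 60 nM for WT; probe 2 2.5 nM for G12V), 1 h. Anti-GST-Tb/streptavidin-XL665 TR-FRET 665/620 ratio; IC50 by four-parameter fit.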

T1 sequence (P01116 1-169 isoform P01116-2 G12V): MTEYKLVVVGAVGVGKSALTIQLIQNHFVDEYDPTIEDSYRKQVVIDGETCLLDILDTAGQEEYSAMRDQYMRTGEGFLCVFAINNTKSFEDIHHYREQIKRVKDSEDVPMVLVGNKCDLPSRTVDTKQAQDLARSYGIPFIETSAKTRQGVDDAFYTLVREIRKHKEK

Row | Compound | IC50
1 | Cc1cc(N)nc(-c2c(Cl)cc3c(N4CCC5(CC4)CN(C)C(=O)O5)nc(OC[C@@]45CCCN4C[C@H](F)C5)nc3c2F)c1C(F)(F)F [Example 106, 8-(7-(6-amino-4-methyl-3-(trifluoromethyl)pyridin-2-yl)-6-chloro-8-fluoro-2-(((2R,7aS)-2-fluorotetrahydro-1H-pyrrolizin-7a(5H)-yl)methoxy)quinazolin-4-yl)-3-methyl-1-oxa-3,8-diazaspiro[4.5]decan-2-one] | 0.023 µM
2 | Cc1nc(N)nc(-c2c(Cl)cc3c(N4CCC(C#N)CC4)nc(OC[C@@]45CCCN4C[C@H](F)C5)nc3c2F)c1C(F)(F)F [Example 107, 1-(7-(2-amino-6-methyl-5-(trifluoromethyl)pyrimidin-4-yl)-6-chloro-8-fluoro-2-(((2R,7aS)-2-fluorotetrahydro-1H-pyrrolizin-7a(5H)-yl)methoxy)quinazolin-4-yl)piperidine-4-carbonitrile] | 0.073 µM
3 | COc1cc(N)nc(-c2c(Cl)cc3c(N4CCC(C#N)CC4)nc(OC[C@@]45CCCN4C[C@H](F)C5)nc3c2F)c1C(F)(F)F [Example 108, 1-(7-(6-amino-4-methoxy-3-(trifluoromethyl)pyridin-2-yl)-6-chloro-8-fluoro-2-(((2R,7aS)-2-fluorotetrahydro-1H-pyrrolizin-7a(5H)-yl)methoxy)quinazolin-4-yl)piperidine-4-carbonitrile] | > 1 µM
4 | Nc1cc(Cl)c(C(F)(F)F)c(-c2ncc3c(NC4CC4)nc(OC[C@@]45CCCN4C[C@H](F)C5)nc3c2F)c1 [Example 110, 7-(5-amino-3-chloro-2-(trifluoromethyl)phenyl)-N-cyclopropyl-8-fluoro-2-(((2R,7aS)-2-fluorotetrahydro-1H-pyrrolizin-7a(5H)-yl)methoxy) pyrido[4,3-d]pyrimidin-4-amine] | 0.017 µM
5 | Nc1cc(Cl)c(C(F)(F)F)c(-c2ncc3c(NC4CCC4)nc(OC[C@@]45CCCN4C[C@H](F)C5)nc3c2F)c1 [Example 111, 7-(5-amino-3-chloro-2-(trifluoromethyl)phenyl)-N-cyclobutyl-8-fluoro-2-(((2R,7aS)-2-fluorotetrahydro-1H-pyrrolizin-7a(5H)-yl)methoxy) pyrido[4,3-d]pyrimidin-4-amine] | 0.04 µM
6 | Nc1cc(Cl)c(C(F)(F)F)c(-c2ncc3c(NC45CC(C4)C5)nc(OC[C@@]45CCCN4C[C@H](F)C5)nc3c2F)c1 [Example 112, 7-(5-amino-3-chloro-2-(trifluoromethyl)phenyl)-N-(bicyclo [1.1.1]pentan-1-yl)-8-fluoro-2-(((2R,7aS)-2-fluorotetrahydro-1H-pyrrolizin-7a(5H)-yl)methoxy) pyrido[4,3-d]pyrimidin-4-amine] | 0.019 µM
7 | Nc1cc(Cl)c(C(F)(F)F)c(-c2ncc3c(N4CCOCC4)nc(OC[C@@]45CCCN4C[C@H](F)C5)nc3c2F)c1 [Example 113, 3-chloro-5-(8-fluoro-2-(((2R,7aS)-2-fluorotetrahydro-1H-pyrrolizin-7a(5H)-yl)methoxy)-4-morpholinopyrido[4,3-d]pyrimidin-7-yl)-4-(trifluoromethyl)aniline] | 0.011 µM
8 | C[C@H]1COCCN1c1nc(OC[C@@]23CCCN2C[C@H](F)C3)nc2c(F)c(-c3cc(N)cc(Cl)c3C(F)(F)F)ncc12 [Example 114, 3-chloro-5-(8-fluoro-2-(((2R,7aS)-2-fluorotetrahydro-1H-pyrrolizin-7a(5H)-yl)methoxy)-4-((S)-3-methylmorpholino)pyrido[4,3-d]pyrimidin-7-yl)-4-(trifluoromethyl)aniline] | 0.0092 µM
9 | C[C@@H]1COCCN1c1nc(OC[C@@]23CCCN2C[C@H](F)C3)nc2c(F)c(-c3cc(N)cc(Cl)c3C(F)(F)F)ncc12 [Example 115, 3-chloro-5-(8-fluoro-2-(((2R,7aS)-2-fluorotetrahydro-1H-pyrrolizin-7a(5H)-yl)methoxy)-4-((R)-3-methylmorpholino)pyrido[4,3-d]pyrimidin-7-yl)-4-(trifluoromethyl)aniline] | 0.0065 µM
10 | CC[C@H]1COCCN1c1nc(OC[C@@]23CCCN2C[C@H](F)C3)nc2c(F)c(-c3cc(N)cc(Cl)c3C(F)(F)F)ncc12 [Example 116, 3-chloro-5-(4-((S)-3-ethylmorpholino)-8-fluoro-2-(((2R,7aS)-2-fluorotetrahydro-1H-pyrrolizin-7a(5H)-yl)methoxy)pyrido[4,3-d]pyrimidin-7-yl)-4-(trifluoromethyl)aniline] | 0.0044 µM
11 | CC[C@@H]1COCCN1c1nc(OC[C@@]23CCCN2C[C@H](F)C3)nc2c(F)c(-c3cc(N)cc(Cl)c3C(F)(F)F)ncc12 [Example 117, 3-chloro-5-(4-((R)-3-ethylmorpholino)-8-fluoro-2-(((2R,7aS)-2-fluorotetrahydro-1H-pyrrolizin-7a(5H)-yl)methoxy)pyrido[4,3-d]pyrimidin-7-yl)-4-(trifluoromethyl)aniline] | 0.012 µM
12 | C[C@H]1COC[C@H](C)N1c1nc(OC[C@@]23CCCN2C[C@H](F)C3)nc2c(F)c(-c3cc(N)cc(Cl)c3C(F)(F)F)ncc12 [Example 118, 3-chloro-5-(4-((3S,5S)-3,5-dimethylmorpholino)-8-fluoro-2-(((2R,7aS)-2-fluorotetrahydro-1H-pyrrolizin-7a(5H)-yl)methoxy)pyrido[4,3-d]pyrimidin-7-yl)-4-(trifluoromethyl)aniline] | 0.023 µM
13 | CC1CN(c2nc(OC[C@@]34CCCN3C[C@H](F)C4)nc3c(F)c(-c4cc(N)cc(Cl)c4C(F)(F)F)ncc23)CCO1 (stereo partly drawn) [Example 119, 3-chloro-5-(8-fluoro-2-(((2R,7aS)-2-fluorotetrahydro-1H-pyrrolizin-7a(5H)-yl)methoxy)-4-(2-methylmorpholino)pyrido[4,3-d]pyrimidin-7-yl)-4-(trifluoromethyl)aniline] | 0.024 µM
14 | Nc1cc(Cl)c(C(F)(F)F)c(-c2ncc3c(N4CCO[C@H](CO)C4)nc(OC[C@@]45CCCN4C[C@H](F)C5)nc3c2F)c1 [Example 120, ((2S)-4-(7-(5-amino-3-chloro-2-(trifluoromethyl)phenyl)-8-fluoro-2-((2-fluorotetrahydro-1H-pyrrolizin-7a(5H)-yl)methoxy)pyrido[4,3-d]pyrimidin-4-yl)morpholin-2-yl)methanol] | 0.0066 µM
15 | N#CC1CCN(c2nc(OC[C@@]34CCCN3C[C@H](F)C4)nc3c(F)c(-c4cc(N)cc(Cl)c4C(F)(F)F)ncc23)CC1 [Example 121, 1-(7-(5-amino-3-chloro-2-(trifluoromethyl)phenyl)-8-fluoro-2-(((2R,7aS)-2-fluorotetrahydro-1H-pyrrolizin-7a(5H)-yl)methoxy)pyrido[4,3-d]pyrimidin-4-yl)piperidine-4-carbonitrile] | 0.013 µM
16 | N#CC1CCN(c2nc(OC[C@@]34CCCN3C[C@H](F)C4)nc3c(F)c(-c4cc(N)cc(Cl)c4C(F)(F)F)ncc23)CC1F (stereo partly drawn) [Example 122, 1-(7-(5-amino-3-chloro-2-(trifluoromethyl)phenyl)-8-fluoro-2-(((2R,7aS)-2-fluorotetrahydro-1H-pyrrolizin-7a(5H)-yl)methoxy)pyrido[4,3-d]pyrimidin-4-yl)-3-fluoropiperidine-4-carbonitrile] | 0.028 µM
17 | CC1CN(c2nc(OC[C@@]34CCCN3C[C@H](F)C4)nc3c(F)c(-c4cc(N)cc(Cl)c4C(F)(F)F)ncc23)CCC1C#N (stereo partly drawn) [Example 123, 1-(7-(5-amino-3-chloro-2-(trifluoromethyl)phenyl)-8-fluoro-2-(((2R,7aS)-2-fluorotetrahydro-1H-pyrrolizin-7a(5H)-yl)methoxy)pyrido[4,3-d]pyrimidin-4-yl)-3-methylpiperidine-4-carbonitrile] | 0.022 µM
18 | CC1CC(C#N)CCN1c1nc(OC[C@@]23CCCN2C[C@H](F)C3)nc2c(F)c(-c3cc(N)cc(Cl)c3C(F)(F)F)ncc12 (stereo partly drawn) [Example 124, 1-(7-(5-amino-3-chloro-2-(trifluoromethyl)phenyl)-8-fluoro-2-(((2R,7aS)-2-fluorotetrahydro-1H-pyrrolizin-7a(5H)-yl)methoxy)pyrido[4,3-d]pyrimidin-4-yl)-2-methylpiperidine-4-carbonitrile] | 0.015 µM
19 | N#CCC1CCN(c2nc(OC[C@@]34CCCN3C[C@H](F)C4)nc3c(F)c(-c4cc(N)cc(Cl)c4C(F)(F)F)ncc23)CC1 [Example 125, 2-(1-(7-(5-amino-3-chloro-2-(trifluoromethyl)phenyl)-8-fluoro-2-(((2R,7aS)-2-fluorotetrahydro-1H-pyrrolizin-7a(5H)-yl)methoxy)pyrido[4,3-d]pyrimidin-4-yl)piperidin-4-yl)acetonitrile] | 0.081 µM
20 | N#CCC1CCCN(c2nc(OC[C@@]34CCCN3C[C@H](F)C4)nc3c(F)c(-c4cc(N)cc(Cl)c4C(F)(F)F)ncc23)C1 (stereo partly drawn) [Example 126, 2-(1-(7-(5-amino-3-chloro-2-(trifluoromethyl)phenyl)-8-fluoro-2-(((2R,7aS)-2-fluorotetrahydro-1H-pyrrolizin-7a(5H)-yl)methoxy)pyrido[4,3-d]pyrimidin-4-yl)piperidin-3-yl)acetonitrile] | 0.0063 µM
21 | Nc1cc(Cl)c(C(F)(F)F)c(-c2ncc3c(N4CCC(O)CC4)nc(OC[C@@]45CCCN4C[C@H](F)C5)nc3c2F)c1 [Example 127, 1-(7-(5-amino-3-chloro-2-(trifluoromethyl)phenyl)-8-fluoro-2-(((2R,7aS)-2-fluorotetrahydro-1H-pyrrolizin-7a(5H)-yl)methoxy)pyrido[4,3-d]pyrimidin-4-yl)piperidin-4-ol] | 0.021 µM
22 | C[C@]1(O)CCCN(c2nc(OC[C@@]34CCCN3C[C@H](F)C4)nc3c(F)c(-c4cc(N)cc(Cl)c4C(F)(F)F)ncc23)C1 [Example 129, (S)-1-(7-(5-amino-3-chloro-2-(trifluoromethyl)phenyl)-8-fluoro-2-(((2R,7aS)-2-fluorotetrahydro-1H-pyrrolizin-7a(5H)-yl)methoxy)pyrido[4,3-d]pyrimidin-4-yl)-3-methylpiperidin-3-ol] | 0.015 µM
